Article PMC11237694, “Novel pentafluorosulfanyl-containing triclocarban analogs selectively kill Gram-positive bacteria” (Microbiology Spectrum, 2024)
≈ marks a conversion by molar mass, not a printed value.

Experiments:
[1] = system: S. epidermidis ATCC 12228; assay: Planktonic susceptibility (MIC/MBC), 96-well broth microdilution; type: cell-based, Staphylococcus epidermidis; conditions: for MBC / MIC: Staphylococcus epidermidis; for MBC: ATCC12228; for MIC: ATCC12228, planktonic, overnight 37°C in MHB
Experimental: (§1) All bacterial strains subjected to testing had been stored at −70°C prior to the experiment. The experiment commenced by streaking small amounts of the frozen bacterial samples onto Muller-Hinton agar (MHA) culture medium (BD Bacto, Oxoid, Basingstoke, UK Cat# X296B) and allowing for overnight incubation. Bacteria were re-cultured on MHA plates as required to confirm colony morphology and lack of contamination. Strains tested were P. aeruginosa ATCC 27853, E. coli ATCC 25922, Staphylococcus aureus ATCC 25923, MRSA ATCC 33591, S. epidermidis ATCC 12228, Klebsiella pneumoniae ATCC, P. mirabilis ATCC 35659, and 10 clinical isolates of MRSA from Foothills Hospital, Calgary, Canada. To prepare for susceptibility testing, a protocol modified from Lemire et al was used ([28]). MHB was swab-inoculated from MHA colonies and shake-incubated until turbid. Dilution of the broth with 0.9% saline was performed as necessary to match a 1.0 McFarland standard.
(§2) MIC and MBC assessments were conducted on all bacterial strains using 96-well microtiter plates. To prepare the wells for bacteria, serial dilutions of the antibacterial agents were carried out along the rows of two microtiter plates. The antibacterials were 2-fold diluted with Mueller-Hinton broth (MHB) in each column, reaching a volume of 75 µL. The 1.0 McFarland standard was diluted 15-fold in MHB, and 75 µL of inoculum was added to the wells treated with antibacterials, resulting in a total volume of 150 µL. The microtiter plates were covered and then shake-incubated overnight at 150 rpm and 37°C. MIC was determined based on visible bacterial growth. In cases of antibacterial opacity or ambiguous results, streaking of well cultures on MHA, overnight incubation, and subsequent comparison with controls were performed. MBC was determined by transferring 3 µL of culture from all MIC microtiter plate wells to 147 µL of Mueller-Hinton broth in fresh plates. These plates were shake-incubated overnight at 150 rpm and 37°C, and bacterial growth was visually inspected.

[2] = system: 10 clinical isolates of MRSA from Foothills Hospital, Calgary; assay: Planktonic susceptibility (MIC/MBC) of MRSA clinical isolates; type: cell-based, methicillin-resistant S. aureus; conditions: Staphylococcus aureus
Experimental: as §1
as §2, with “In cases of antibacterial opacity or ambiguous results, streaking of well cultures on MHA, overnight incubation, and subsequent comparison with controls were performed.” left out

HEL cells = assay: Eukaryotic cell toxicity, microscopy (MCC); type: cell-based, Human; conditions: minimum concentration causing microscopically detectable alteration of cell morphology; 4 days
Experimental: (§3) Five eukaryotic cell lines were used to determine the cytotoxicity of the compounds: human embryonic lung (HEL) fibroblast cells, human cervixcarinoma-derived HeLa cells, human T-cell leukemia-derived MT4 cells, MDCK cells, and African Green monkey kidney-derived VERO cells. Semi-confluent cell cultures in 96-well plates were exposed to serial dilutions of the compounds or to medium (= no compound control), then incubated at 37°C. Four days later, the cells were inspected by microscopy to determine the MCC, that is, compound concentration that causes a microscopically detectable alteration of normal cell morphology. Next, the MTS cell viability reagent (CellTiter 96 AQueous MTS Reagent from Promega) was added. After 4 hours of incubation at 37°C, OD at 490 nm was recorded in a microplate reader.

HeLa cells = assay: Eukaryotic cell toxicity, microscopy (MCC); type: cell-based, Human; conditions: minimum concentration causing microscopically detectable alteration of cell morphology; 4 days
Experimental: as §3

[3] = Eukaryotic cell toxicity, MTS assay (CC50); type: cell-based, canine; conditions: dog, MDCK cells, MTS assay, 4 days; mean of 2 or 3 determinations; read-out: MDCK (CC50) in vitro cytotoxicity
Experimental: as §3

| SMILES | antibacterial efficacy (in words) [1] | MBC [1] [µM] | MIC [1] [µM] | MBC ([2]; MRSA #1 clinical isolate) [µM] | MIC ([2]; MRSA #1 clinical isolate) [µM] | MBC ([2]; MRSA #2 clinical isolate) [µM] | MIC ([2]; MRSA #2 clinical isolate) [µM] | MBC ([2]; MRSA #3 clinical isolate) [µM] | MIC ([2]; MRSA #3 clinical isolate) [µM] | MBC ([2]; MRSA #4 clinical isolate) [µM] | MIC ([2]; MRSA #4 clinical isolate) [µM] | MBC ([2]; MRSA #5 clinical isolate) [µM] | MIC ([2]; MRSA #5 clinical isolate) [µM] | MBC ([2]; MRSA #6 clinical isolate) [µM] | MIC ([2]; MRSA #6 clinical isolate) [µM] | MBC ([2]; MRSA #7 clinical isolate) [µM] | MIC ([2]; MRSA #7 clinical isolate) [µM] | MBC ([2]; MRSA #8 clinical isolate) [µM] | MIC ([2]; MRSA #8 clinical isolate) [µM] | MBC ([2]; MRSA #9 clinical isolate) [µM] | also measured |
| --- | --- | --- | --- | --- | --- | --- | --- | --- | --- | --- | --- | --- | --- | --- | --- | --- | --- | --- | --- | --- | --- |
| O=C(Nc1ccc(Cl)cc1)Nc1cccc(S(F)(F)(F)(F)F)c1 [EBP-62, 1-(4-chlorophenyl)-3-(3-(pentafluoro-λ^6-sulfanyl)phenyl)urea] | effective | 100 (≈ 37.3 µg/mL) | 20 (≈ 7.45 µg/mL) | 80 (≈ 29.8 µg/mL) | < 2 | 5 (≈ 1.86 µg/mL) | < 2 | < 2 | < 2 | 20 (≈ 7.45 µg/mL) | < 2 | 20 (≈ 7.45 µg/mL) | < 2 | 5 (≈ 1.86 µg/mL) | < 2 | 10 (≈ 3.73 µg/mL) | 5 (≈ 1.86 µg/mL) | 80 (≈ 29.8 µg/mL) | 5 (≈ 1.86 µg/mL) | 40 (≈ 14.9 µg/mL) | MIC ([2]; MRSA #9 clinical isolate): < 2 µM; MBC ([2]; MRSA #10 clinical isolate): 80 µM (≈ 29.8 µg/mL); MIC ([2]; MRSA #10 clinical isolate): 5 µM (≈ 1.86 µg/mL); HEL (MCC) in vitro cytotoxicity (HEL cells): 20 µM; HeLa (MCC) in vitro cytotoxicity (HeLa cells): >4 µM; CC50 at 4 days [3]: 100 µM |
| O=C(Nc1ccc(Cl)cc1)Nc1ccc(S(F)(F)(F)(F)F)cc1 [EPB-61, 1-(4-Chlorophenyl)-3-(4-(pentafluoro-λ^6-sulfanyl)phenyl)urea] | effective | 40 (≈ 14.9 µg/mL) | 1 (≈ 0.373 µg/mL) | 40 (≈ 14.9 µg/mL) | < 2 | 10 (≈ 3.73 µg/mL) | < 2 | 10 (≈ 3.73 µg/mL) | < 2 | 20 (≈ 7.45 µg/mL) | < 2 | 40 (≈ 14.9 µg/mL) | < 2 | 20 (≈ 7.45 µg/mL) | < 2 | 20 (≈ 7.45 µg/mL) | < 2 | 40 (≈ 14.9 µg/mL) | < 2 | 40 (≈ 14.9 µg/mL) | MIC ([2]; MRSA #9 clinical isolate): < 2 µM; MBC ([2]; MRSA #10 clinical isolate): 20 µM (≈ 7.45 µg/mL); MIC ([2]; MRSA #10 clinical isolate): < 2 µM; HEL (MCC) in vitro cytotoxicity (HEL cells): >4 µM; HeLa (MCC) in vitro cytotoxicity (HeLa cells): 4 µM; CC50 at 4 days [3]: ≥ 100 µM |
| O=C(Nc1ccc(S(F)(F)(F)(F)F)cc1)Nc1ccc(Cl)c(Cl)c1 [EBP-59] | effective | 10 (≈ 4.07 µg/mL) | 4 (≈ 1.63 µg/mL) | 5 (≈ 2.04 µg/mL) | < 2 | < 2 | < 2 | < 2 | < 2 | 5 (≈ 2.04 µg/mL) | < 2 | 10 (≈ 4.07 µg/mL) | < 2 | < 2 | < 2 | < 2 | < 2 | 5 (≈ 2.04 µg/mL) | < 2 | 20 (≈ 8.14 µg/mL) | MIC ([2]; MRSA #9 clinical isolate): < 2 µM; MBC ([2]; MRSA #10 clinical isolate): 40 µM (≈ 16.3 µg/mL); MIC ([2]; MRSA #10 clinical isolate): < 2 µM; HEL (MCC) in vitro cytotoxicity (HEL cells): >4 µM; HeLa (MCC) in vitro cytotoxicity (HeLa cells): 4 µM; CC50 at 4 days [3]: ≥ 100 µM |
